From BindingDB's records for patent US12509454 (Ideaya Biosciences, 2025)

Molecular target: T1, DNA polymerase theta [1-899] (UniProt O75417)
T1 construct: 1-899
Assay: ATPase activity of Pol theta (1-899) was determined using the assay
Protocol: Pol Theta ATPase activity was determined by measuring the rate of ATP turn over in a NADH oxidation-coupled enzymatic assay. 10-point dilution series of compounds were used in a 384 well format for the inhibition assays. Pol theta (1-899) (10 nM) in assay buffer (20 mM Tris HCl (pH 7.80), 80 mM KCl, 10 mM MgCl2, 1 mM DTT, 0.01% BSA, 0.01% Tween, 5% glycerol) was transferred to the test wells (20 μL), except the low control wells (20 μL of assay buffer was added to the low control wells). The plate was then incubated at room temperature for 15 min. An equal volume (20 μL) of 100 μM ATP, 300 nM dT50 (single-stranded DNA (ssDNA) containing 50 thymine bases), 300 μM NADH, 6 mM PEP, 10 U/mL lactate dehydrogenase and 20 U/mL pyruvate kinase in assay buffer was added to all the test wells. The plate was then centrifuged at 1000 rpm for 1 min. The reaction was monitored for 30 min by measuring absorbance (λ=340 nm) in a Tecan Spark multimode plate reader every minute. The high control (DMSO with enzyme) with low absorbance intensity represents no inhibition of ATPase reaction while the low control (DMSO with buffer) with high absorbance intensity represents full inhibition of ATPase activity. Slope of the reaction progress curves were used to calculate the rate of ATP hydrolysis.

T1 sequence (O75417 1-899): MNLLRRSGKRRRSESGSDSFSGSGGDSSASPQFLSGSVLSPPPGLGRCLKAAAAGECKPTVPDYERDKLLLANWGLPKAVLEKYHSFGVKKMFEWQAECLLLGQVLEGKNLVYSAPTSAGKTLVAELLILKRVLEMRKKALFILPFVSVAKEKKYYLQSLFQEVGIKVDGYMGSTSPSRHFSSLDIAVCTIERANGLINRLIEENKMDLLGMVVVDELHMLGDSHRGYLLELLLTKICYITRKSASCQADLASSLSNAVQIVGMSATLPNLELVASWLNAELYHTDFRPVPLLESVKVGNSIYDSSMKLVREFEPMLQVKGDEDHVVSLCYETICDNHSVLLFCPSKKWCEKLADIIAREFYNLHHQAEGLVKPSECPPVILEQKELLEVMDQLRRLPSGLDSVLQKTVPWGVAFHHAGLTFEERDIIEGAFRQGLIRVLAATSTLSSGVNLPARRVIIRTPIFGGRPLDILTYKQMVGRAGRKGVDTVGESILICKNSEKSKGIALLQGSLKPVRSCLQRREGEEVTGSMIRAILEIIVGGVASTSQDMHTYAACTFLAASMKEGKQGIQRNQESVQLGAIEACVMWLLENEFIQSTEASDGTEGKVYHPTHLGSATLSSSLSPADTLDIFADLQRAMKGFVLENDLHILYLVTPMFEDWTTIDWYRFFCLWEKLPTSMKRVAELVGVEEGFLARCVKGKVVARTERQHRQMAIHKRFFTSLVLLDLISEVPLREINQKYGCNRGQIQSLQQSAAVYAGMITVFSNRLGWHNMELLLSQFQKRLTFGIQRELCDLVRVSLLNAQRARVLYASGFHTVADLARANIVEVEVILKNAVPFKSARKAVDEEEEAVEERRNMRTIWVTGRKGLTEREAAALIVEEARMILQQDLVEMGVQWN

IC50 [nM] | Compound
< 200 | O=C(Nc1nnc(OCc2ccc(Cl)cc2)s1)c1ccncc1N1CCO[C@@H]2C[C@@H]21 (mixture of isomers) [US12509454, Compound 178]
> 1000 | O=C(Nc1nnc(OCc2ccc(Cl)cc2)s1)c1cccnc1N1CCC(O)CC1 [US12509454, Compound 20]
> 1000 | CC(C)(O)C#Cc1ccc(C(=O)Nc2nnc(OCc3ccc(Cl)cc3)s2)c(N2CCOCC2)n1 [US12509454, Compound 29]
< 200 | N#Cc1cc(-c2c(F)cccc2OC(F)F)c(C(=O)Nc2nnc(OCc3ccc(Cl)cn3)s2)cn1 [US12509454, Compound 193]
